Results on one substance are retold here after US11622975B2, “Compositions and methods for improved honey bee health” (priority 2019, dated 2023).

What all share (assay type): in vivo, Apis mellifera
Assay [1] concerns glutathione-S-transferase S1 (GSTS1). The experiment in a line: Transcript levels of honey bee detoxification gene (RT-qPCR). As to conditions: clothianidin plus 10 μg/bee MBCD versus pesticide only, after 3 days of feeding. The protocol:
Bees receiving clothianidin were compared to bees receiving the pesticide with the addition of 1 μg or 10 μg/bee MBCD after 3 days of feeding. One-way ANOVA with Tukey multiple comparisons was performed to determine any statistical significance (p<0.05 for Clothianidin versus Clothianidin+10 μg/bee MBCD). The “*” denotes the sample chosen as the 2^−ΔΔCT calibrator. […] Pesticides removed from the immediate environment results in less energy dedicated to detoxification and excretion.
The presence of DWV and Varroa destructor was determined as follows. Total RNA was extracted from whole body 12 individual honey bees using the TRIzol Reagent® (available from Thermo Fisher Scientific, Waltham, Mass.) by manufacturers specifications, and stored at −80° C. […] Transcript levels (RT-qPCR analysis) were quantified using the Brilliant III Ultra-Fast SYBR Green® QPCR Master Mix (Agilent Technologies, Inc., Santa Clara, Calif.) on a CFX384 Touch Real Time PCR Detection System (Bio-Rad Laboratories, Inc., Hercules, Calif.). […] For the detection and quantification of negative stranded bee viruses, replication intermediates, TAG-DWV primers were substituted for random primers or oligos (see e.g., Boncristiani et al., 2009). The fold difference in viral concentration among different treatment groups was determined using the comparative Ct method (2^−ΔΔCT method) (see e.g., Livak & Schmittgen, 2001). […]

The test system of assay [2] is honey bees infected with Deformed wing virus. Put plainly: Weight of virus-infected honey bees after MBCD treatment. As to conditions: 10 μg/bee MBCD. The method, then:
Untreated bees fed only 50% sucrose were compared to bees receiving 10 μg/bee MBCD in 50% sucrose (FIG. 7). Median survival was represented for each treatment by (# days). Curves were compared using Log-Rank Mantel-Cox (p<0.001) and Gehan-Breslow-Wilcoxon (p<0.01). […] The mass ([…]) of control bees was compared to bees fed 10 μg/bee MBCD. Bees were measured 3 (FIG. 8A) and 6 (FIG. 8B) days post feeding. With average bee weight higher along with more bees present, the amount of work accomplished in the hive as a whole would be expected to increase. An unpaired, 2-tailed Student's T-Test was performed to determine statistical significance (p<0.05 at 3 days) and bars denote standard error.

In another assay the test system is honey bees. The experiment in a line: Cage survival study of bees fed sublethal doses of pesticides with or without MBCD. The method, then: This example illustrates the baseline effects of the inventive composition in the absence of an exogenous stressor. Samples of European honey bees, Apis mellifera, were collected from colonies maintained in the apiaries of the USDA-ARS Bee Research Laboratory in Beltsville, Md. Frames with emerging brood were removed from colonies and individually placed in a mesh-walled cage. The cages were transferred to an insect growth chamber at 34° C. and 70% humidity. After 24 hrs incubation, newly emerged honey bees were transferred to a honey bee rearing cup, with a top-feeder design, allowing for easy sampling of honey bees (see e.g., Evans et al., 2009). A 3 mL syringe filled with 50% sugar syrup mixture was inverted over the top of the rearing cup to provision the caged honey bees. The honey bees were also provisioned with 1.5 grams of honey bee pollen supplement in patty form (e.g., Bee-Pro®, available from Mann Lake Ltd, Hackensack, Minn.), supplemented 10% (w/w) with ground fresh pollen, and placed on cotton paper on the cup cage bottoms. Syringes and sucrose solution were changed every 3 days and cotton paper was changed once per week.
In this example, whether MBCD mitigates the toxicity of certain pesticides associated with honey bee death was investigated. Not intending to be theory-bound, it was hypothesized that the binding of hydrophobic pesticide molecules to CDs would translate into health benefits to honey bees that were exposed to such pesticides. Samples of honey bees were collected as in example 1. A cage study (n=30 bees per cage & 2 replicate cages per treatment) was performed using 50% sucrose solution that had been spiked with sublethal doses of common pesticides that are known to be toxic to honey bees to measure the ability of treatment MBCD compositions to confer protection to the honey bees. Analytical grade standards of clothianidin, imidacloprid, and chlorpyrifos (available from MilliporeSigma, St. Louis, Mo.) were first dissolved in acetone, then diluted to their final concentrations (Table 2) in 50% sugar syrup. The listed sublethal doses were derived from taking half of the previously published honey bee LD50s (referred to a “LD25” in Table 2). The solutions were administered via 3 mL syringes in rearing cups as previously stated. Fresh pesticide solutions were mixed every 3 days to coincide with syringe replacement (see e.g., Williamson et al., 2013; Li et al, 2017).
Median survival is represented for each treatment by (# days). Curves were compared using Log-Rank Mantel-Cox (p<0.0001 for clothianidin versus control, 1, or 10 μg MBCD; p<0.001 for chlorpyrifos versus control or 1 μg MBCD) and Gehan-Breslow-Wilcoxon (p<0.0001 for clothianidin versus control, 1, or 10 μg MBCD; p<0.05 for chlorpyrifos versus control or 1 μg MBCD). […] The chlorpyrifos treatment was able to reduce median lifespan on its own to 26 days compared to the 36 days of the control (FIG. 2C). While a dosage of 10 μg/bee MBCD did increase median lifespan to 30 days, there was not a significant change in median lifespan.

As for methyl-β-cyclodextrin [MBCD], the “decrease in GSTS1 transcript level” value in assay [1] amounted to 1.5 fold. Besides, the “bee weight versus control” value in assay [2] (3 days after feeding) was “significantly higher weight”; in assay [2] (6 days after feeding), “statistically comparable”. Further, the median lifespan in the assay on honey bees (chlorpyrifos plus 1 μg/bee MBCD, chlorpyrifos alone 26 days) turned out to be 36.5 days; in the assay with honey bees (chlorpyrifos plus 10 μg/bee MBCD, chlorpyrifos alone 26 days) it was 30 days; in the assay with honey bees (clothianidin plus 1 μg/bee MBCD, clothianidin alone 13.5 days), 31 days; with honey bees (clothianidin plus 10 μg/bee MBCD, clothianidin alone 13.5 days) it was 40 days; with honey bees (imidacloprid plus 1 μg/bee MBCD, imidacloprid alone 32 days), 31 days; with honey bees (imidacloprid plus 10 μg/bee MBCD, imidacloprid alone 32 days), 36 days.
